According to publication PMC4773034 (Journal of biomolecular screening, 2012):

Target: EndA(H160G) (Streptococcus pneumoniae serotype 4, UniProt P0A3S3, H160G)
Test: PicoGreen nuclease assay
Format: biochemical
Settings: 25 mM imidazole, 30 min reaction, top concentration 30 µM

Row | SMILES | IC50 (stated in words)
1 | NC(Cc1cc(O)c(O)cc1O)C(=O)O (racemic) [6-hydroxy-DL-DOPA] | nanomolar range
2 | CC(C)c1ccc2c(c1)c(SC(C)(C)C)c(CC(C)(C)C(=O)[O-])n2Cc1ccc(Cl)cc1.[Na+] [MK-886] | nanomolar range
3 | O=c1c(O)c(-c2cc(O)c(O)c(O)c2)oc2cc(O)cc(O)c12 [Myricetin] | nanomolar range
